Test results published in patent US10294202B2, “Pyrrolidinones as herbicides” (FMC Corporation, priority 2013, dated 2019).

Legend:
barnyardgrass [1] = assay: Test A pre-/postemergence herbicide test; type: in vivo, Echinochloa crus-galli
Procedure, shortened: (§1)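 Planted in loam–sand blend; treated the same day preemergence by directed soil spray, while separately grown plants at one- to two-leaf stage got postemergence spray. Compared visually with untreated controls after approximately 10 days; 100 means complete control.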

kochia = assay: Test A pre-/postemergence herbicide test; type: in vivo, Kochia scoparia
Procedure, shortened: as §1

ragweed = assay: Test A pre-/postemergence herbicide test; type: in vivo, Ambrosia elatior
Procedure, shortened: as §1

ryegrass, Italian = assay: Test A pre-/postemergence herbicide test; type: in vivo, Lolium multiflorum
Procedure, shortened: as §1

giant foxtail = assay: Test A pre-/postemergence herbicide test; type: in vivo, Setaria faberii
Procedure, shortened: as §1

pigweed = assay: Test A pre-/postemergence herbicide test; type: in vivo, Amaranthus retroflexus
Procedure, shortened: as §1

wheat = assay: Test A pre-/postemergence herbicide test; type: in vivo, Triticum aestivum; conditions: Postemergence
Procedure, shortened: as §1

corn = assay: Test A pre-/postemergence herbicide test; type: in vivo, Zea mays; conditions: Postemergence
Procedure, shortened: as §1

blackgrass = assay: Test A postemergence herbicide test; type: in vivo, Alopecurus myosuroides
Procedure, shortened: (§2)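 Injury was rated visually about 10 days after treatment on a 0 (no effect) to 100 (complete control) scale, compared with untreated plants. Test chemicals were sprayed postemergence onto greenhouse plants 2–10 cm high at one to two leaves, grown in a loam–sand blend.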

galium = assay: Test A postemergence herbicide test; type: in vivo, Galium aparine
Procedure, shortened: as §2

rice = assay: Test B flooded paddy test; type: in vivo, Oryza sativa; conditions: 500 g ai/ha, Flood; scale of 0 to 100 where 0 is no effect and 100 is complete control
Procedure, shortened: (§3)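 Visual ratings from 0, meaning no effect, up to 100, meaning complete control, were made by comparison with untreated controls 13 to 15 days after treatment. Test compounds went straight into floodwater standing 3 cm over the soil of pots holding 2-leaf seedlings.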

sedge, umbrella = assay: Test B flooded paddy test; type: in vivo, Cyperus difformis; conditions: 500 g ai/ha, Flood; scale of 0 to 100 where 0 is no effect and 100 is complete control
Procedure, shortened: as §3

ducksalad = assay: Test B flooded paddy test; type: in vivo, Heteranthera limosa; conditions: 500 g ai/ha, Flood; scale of 0 to 100 where 0 is no effect and 100 is complete control
Procedure, shortened: as §3

barnyardgrass [2] = assay: Test B flooded paddy test; type: in vivo, Echinochloa crus-galli; conditions: 500 g ai/ha, Flood; scale of 0 to 100 where 0 is no effect and 100 is complete control
Procedure, shortened: as §3

[3] = 125 g ai/ha, visual rating, 0 to 100 scale, 0 no effect, 100 complete control, approximately 10 days, preemergence
[4] = Postemergence, 125 g ai/ha, 0 to 100 scale, 0 is no effect, 100 is complete control
[5] = preemergence, 500 g ai/ha, 0 to 100 scale, 0 is no effect and 100 is complete control
[6] = 125 g ai/ha, 0 to 100 scale, 0 is no effect, 100 is complete control
[7] = Postemergence, 125 g ai/ha, visual rating on 0 to 100 scale (0 no effect, 100 complete control), approx. 10 days
[8] = Postemergence, 500 g ai/ha, 0 to 100 scale (0 no effect, 100 complete control)
[9] = Preemergence, 125 g ai/ha, 0 to 100 scale where 0 is no effect and 100 is complete control
[10] = 125 g ai/ha, visual rating on 0 to 100 scale (0 no effect, 100 complete control), approx. 10 days
[11] = 500 g ai/ha, 0 to 100 scale (0 no effect, 100 complete control)

O=C1NCC(c2cccc(C3CC3)c2)C1C(=O)Nc1ccccc1F (racemic) [Compound 166]
Plant response rating, Barnyardgrass (barnyardgrass [1]; [3]): 80
Plant response rating, Barnyardgrass (barnyardgrass [1]; [4]): 80
Barnyardgrass plant response rating (0 to 100 scale, 0 is no effect, 100 is complete control) (barnyardgrass [1]; Postemergence, 500 g ai/ha): 80
Plant response rating, Barnyardgrass (barnyardgrass [1]; preemergence, 500 g ai/ha, 0 to 100 scale (0 no effect, 100 complete control)): 90
Plant response rating, Kochia (kochia; [3]): 30
Plant response rating, Kochia (kochia; [4]): 30
Kochia plant response rating (0 to 100 scale, 0 is no effect, 100 is complete control) (kochia; Postemergence, 500 g ai/ha): 70
Plant response rating, Kochia (kochia; [5]): 70
Plant response rating, Ragweed (ragweed; [3]): 0
Plant response rating, Ragweed (ragweed; [4]): 0
Ragweed plant response rating (0 to 100 scale, 0 is no effect, 100 is complete control) (ragweed; Postemergence, 500 g ai/ha): 0
Plant response rating, Ragweed (ragweed; [5]): 50
Plant response rating, Ryegrass, Italian (ryegrass, Italian; [3]): 20
Plant response rating, Ryegrass, Italian (ryegrass, Italian; [4]): 0
Ryegrass, Italian plant response rating (0 to 100 scale, 0 is no effect, 100 is complete control) (ryegrass, Italian; Postemergence, 500 g ai/ha): 50
Plant response rating, Ryegrass, Italian (ryegrass, Italian; [5]): 60
Plant response rating, Foxtail, Giant (giant foxtail; [3]): 90
Plant response rating, Foxtail, Giant (giant foxtail; [4]): 80
Foxtail, Giant plant response rating (0 to 100 scale, 0 is no effect, 100 is complete control) (giant foxtail; Postemergence, 500 g ai/ha): 90
Plant response rating, Foxtail, Giant (giant foxtail; preemergence, 500 g ai/ha, 0 to 100 scale): 90
Plant response rating, Pigweed (pigweed; [3]): 0
Plant response rating, Pigweed (pigweed; [4]): 40
Pigweed plant response rating (0 to 100 scale, 0 is no effect, 100 is complete control) (pigweed; Postemergence, 500 g ai/ha): 50
Plant response rating, Pigweed (pigweed; [5]): 10
Plant response rating, Wheat (wheat; [6]): 20
Wheat plant response rating (0 to 100 scale, 0 is no effect, 100 is complete control) (wheat; 500 g ai/ha): 50
Plant response rating, Corn (corn; [6]): 30
Corn plant response rating (0 to 100 scale, 0 is no effect, 100 is complete control) (corn; 500 g ai/ha): 80
Plant response rating, Blackgrass (blackgrass; [6]): 50
Blackgrass plant response rating (0 to 100 scale, 0 is no effect, 100 is complete control) (blackgrass; 500 g ai/ha): 60
Plant response rating, Galium (galium; [6]): 20
Galium plant response rating (0 to 100 scale, 0 is no effect, 100 is complete control) (galium; 500 g ai/ha): 60
Plant response rating, Rice (rice): 0
Plant response rating, Sedge, Umbrella (sedge, umbrella): 0
Plant response rating, Ducksalad (ducksalad): 100
Plant response rating, Barnyardgrass (barnyardgrass [2]): 75

O=C1NCC(c2ccc(Cl)s2)C1C(=O)Nc1ccccc1C(F)(F)F (stereo not shown) [Compound 293]
Plant response rating, Barnyardgrass (barnyardgrass [1]; [7]): 50
Plant response rating, Barnyardgrass (barnyardgrass [1]; [8]): 70
Plant response rating, Barnyardgrass (barnyardgrass [1]; [9]): 20
Plant response rating, Barnyardgrass (barnyardgrass [1]; [5]): 70
Plant response rating, Kochia (kochia; [7]): 0
Plant response rating, Kochia (kochia; [8]): 0
Plant response rating, Kochia (kochia; [9]): 0
Plant response rating, Kochia (kochia; [5]): 0
Plant response rating, Ragweed (ragweed; [7]): 0
Plant response rating, Ragweed (ragweed; [8]): 0
Plant response rating, Ryegrass, Italian (ryegrass, Italian; [7]): 0
Plant response rating, Ryegrass, Italian (ryegrass, Italian; [8]): 0
Plant response rating, Ryegrass, Italian (ryegrass, Italian; [9]): 0
Ryegrass, Italian plant response rating (ryegrass, Italian; Preemergence, 500 g ai/ha, visual rating on 0 to 100 scale (0 no effect, 100 complete control)): 0
Plant response rating, Foxtail, Giant (giant foxtail; [7]): 50
Plant response rating, Foxtail, Giant (giant foxtail; [8]): 70
Plant response rating, Foxtail, Giant (giant foxtail; [9]): 80
Plant response rating, Foxtail, Giant (giant foxtail; [5]): 90
Plant response rating, Pigweed (pigweed; [7]): 0
Plant response rating, Pigweed (pigweed; [8]): 0
Plant response rating, Pigweed (pigweed; [9]): 0
Plant response rating, Pigweed (pigweed; [5]): 0
Plant response rating, Wheat (wheat; [10]): 0
Plant response rating, Wheat (wheat; [11]): 0
Plant response rating, Corn (corn; [10]): 0
Plant response rating, Corn (corn; [11]): 0
Plant response rating, Blackgrass (blackgrass; [10]): 0
Plant response rating, Blackgrass (blackgrass; [11]): 10
Plant response rating, Galium (galium; [10]): 20
Plant response rating, Galium (galium; [11]): 60
Plant response rating, Rice (rice): 0
Plant response rating, Sedge, Umbrella (sedge, umbrella): 0
Plant response rating, Ducksalad (ducksalad): 95
Plant response rating, Barnyardgrass (barnyardgrass [2]): 35
